Data published in PubChem BioAssay (NCI).
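Test compounds were applied to cells in 96-well plates for 48 hours at 5 doses. The concentration for 50% growth inhibition is given as GI50. Definition used: TGI = concentration required for complete inhibition of growth.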

How the values were obtained:
Test in all cases: inhibition of tumour cell growth, NCI panel, 48 h
SN12C renal = tested on: SN12C renal
MCF7 breast = tested on: MCF7 breast
MOLT-4 leukemia = tested on: MOLT-4 leukemia
ACHN renal = tested on: ACHN renal
OVCAR-4 ovarian = tested on: OVCAR-4 ovarian
UO-31 renal = tested on: UO-31 renal
MALME-3M melanoma = tested on: MALME-3M melanoma
A498 renal = tested on: A498 renal
NCI/ADR-RES ovarian = tested on: NCI/ADR-RES ovarian
HL-60(TB) leukemia = tested on: HL-60(TB) leukemia

SMILES | GI50 (SN12C renal) [µM] | TGI (SN12C renal) [µM] | GI50 (MCF7 breast) [µM] | TGI (MCF7 breast) [µM] | GI50 (MOLT-4 leukemia) [µM] | TGI (MOLT-4 leukemia) [µM] | GI50 (ACHN renal) [µM] | TGI (ACHN renal) [µM] | GI50 (OVCAR-4 ovarian) [µM] | TGI (OVCAR-4 ovarian) [µM] | GI50 (UO-31 renal) [µM] | TGI (UO-31 renal) [µM] | GI50 (MALME-3M melanoma) [µM] | TGI (MALME-3M melanoma) [µM] | GI50 (A498 renal) [µM] | TGI (A498 renal) [µM] | GI50 (NCI/ADR-RES ovarian) [µM] | TGI (NCI/ADR-RES ovarian) [µM] | GI50 (HL-60(TB) leukemia) [µM] | TGI (HL-60(TB) leukemia) [µM]
N#Cc1c(N)nc(N2CCOCC2)c(C#N)c1-c1c(Cl)cccc1Cl | 6.17 | 33.2 | 2.92 | 16.4 | 5.1 | 86.5 | 13.4 | 44.5 | 13.1 | > 100 | 7.79 | 44.1 | 3.72 | 13.5 | 3.75 | 23.1 | 2.34 | 7.46 | 4.75 | 20.9
COc1cc(C2NC(=O)C(C#N)=C(Nc3cccc(C)c3)S2)ccc1O (stereo not given) | > 100 | > 100 | > 100 | > 100 | > 100 | > 100 | > 100 | > 100 | > 100 | > 100 | > 100 | > 100 | > 100 | > 100 | > 100 | > 100 | > 100 | > 100 | > 100 | > 100
COc1cc(C(=O)n2nc(N)c3c(C)cc(C)nc32)cc(OC)c1OC | > 100 | > 100 | 10.2 | > 100 | 7.26 | > 100 | > 100 | > 100 | > 100 | > 100 | > 100 | > 100 | > 100 | > 100 | > 20.8 | > 100 | 16.3 | > 100 | 4.49 | > 100
CC1=C[C@@H]2c3c(c(O)c(O)c4oc5cc(O)cc(O)c5c(=O)c34)[C@@H](c3cc(O)c(O)c4oc5cc(O)cc(O)c5c(=O)c34)[C@@H]2C(C)(C)C1 | 3.91 | 23 | 1.89 | 11 | 3.38 | 19.5 | 4.25 | 15.7 | 3.26 | 14.7 | 3.83 | 16.3 | 8.53 | 25.2 | 9.07 | 21 | 10.2 | 27.1 | 4.87 | 27.4
COc1ccc2c(c1)/C(=N/OC(C)=O)c1c-2c(OC)nc2ccccc12 | 59.9 | > 100 | 88.3 | > 100 | > 100 | > 100 | 86.4 | > 100 | 58.3 | > 100 | > 100 | > 100 | 57.3 | > 100 | > 100 | > 100 | > 100 | > 100 | > 100 | > 100
O=C1C=CC(=O)c2c1nc(CBr)[nH]c2=O | – | > 100 | – | > 100 | – | > 100 | – | > 100 | – | > 100 | – | > 100 | – | > 100 | – | > 100 | – | > 100 | – | 55
Cc1ccc(-c2nc3sc(C)cn3c2/C=C2\C(=O)Nc3ccc(Cl)cc32)cc1 | 15 | 29.8 | 7.66 | 22.3 | 26.2 | 82.7 | 4.27 | 16 | 14.5 | 29.9 | 28.1 | > 100 | 14.9 | 35.6 | 16.3 | 36 | 15.7 | 34.2 | 32.3 | > 100
FC(F)(F)c1cccc(-c2[nH]ncc2-c2nnnn2-c2ccccc2)c1 | 9.76 | 21.9 | 3.3 | 13.7 | 4.79 | 28.8 | 11.2 | 24.5 | 11.7 | 28.8 | 10.7 | 23.6 | 3.66 | 13.3 | 4.28 | 17.8 | 3.17 | 25.2 | 3.94 | 8.86
Cc1c(C(N)=O)sc2nc(C)n(/N=c3\scc(-c4ccccc4)n3Cc3ccccc3)c(=O)c12 | 3.84 | > 100 | 2.92 | > 100 | 24.6 | > 100 | 2.86 | > 100 | 2.5 | > 100 | 1.66 | 7 | 2.18 | > 100 | 2.53 | 8.97 | 2.9 | 29.2 | 6.68 | > 100
